Measured values from patent US20230310455A1, “COMBINATION THERAPIES FOR TREATMENT OF HER2 CANCER” (Genentech, Inc., priority 2020, published 2023).

How the values were obtained:
[1] = tested on: HER2 negative (PIK3CA-mutant) breast cancer cell lines; assay: Viability assay (CellTiter-Glo), HER2 negative breast cancer cell lines; format: cell-based; settings: viability by ATP quantification
From the text: (§1) In a cell proliferation assay, we investigated the effect of inavolisib and alpelisib (both PI3Kα specific inhibitors) on vialibility of breast cancer cell lines having different HER2 expression and PIK3CA mutant status. Unexpectedly, we observed a significant difference between the sensitivity of inavolisib and alpelisib in HER2 amplified (˜20 fold difference between the mean IC50 values) versus HER2 negative cell lines (˜6-fold difference between two inhibitors). Both inhibitors were not differentiated in wild-type (WT) cell lines regardless of HER2 status (FIG. 1).
(§2) Cell lines were obtained from the ATCC. All cell lines underwent authentication by Short Tandem Repeat profiling, SNP fingerprinting, and mycoplasma testing (Yu M. et al. “A resource for cell line authentication, annotation and quality control” Nature 520, 307-311 (2015)). Cell lines were grown under standard tissue-culture conditions in RPMI media with 10% fetal bovine serum (Gibco, 10082-147), 100 U/mL penicillin-streptomycin (Gibco, 15140-122), 2 mmol/L L-glutamine (Gibco, 15030-081). […]
(§3) Viability assay: Cells were seeded (1000-2000 cells/well) in 384-well plates for 16 hours. […] After 4 days, relative numbers of viable cells were measured by luminescence using CellTiter-Glo® (Promega) according to the manufacturer's instructions and read on a Wallac Multilabel Reader (PerkinElmer, Foster City). […]

[2] = tested on: HER2 amplified (HER2-positive PIK3CA-mutant) breast cancer cell lines; assay: Viability assay (CellTiter-Glo), HER2 amplified breast cancer cell lines; format: cell-based; settings: viability by ATP quantification
From the text: as §1, §2, §3

[3] = tested on: KPL-4 (HER2-positive, PIK3CA H1047R) breast cancer xenograft; assay: In vivo tumor growth inhibition, KPL-4 breast cancer xenograft model; settings: inavolisib 25 mg/kg orally daily 28 days, trastuzumab 3 mg/kg and pertuzumab 2.5 mg/kg i.p. weekly 4 weeks
Description: The in vivo efficacy of the test compounds and combinations was tested in a KPL-4 (HER2-positive, PIK3CA H1047R) breast cancer xenograft model. […] Tumor volumes were measured using Ultra Cal-IV calipers (Model 54-10-111; Fred V. Fowler Co.; Newton, MA). The following formula was used in Excel, version 11.2 to calculate tumor volume: Tumor Volume (mm^3)=(Length×Width^2)×0.5. Mice for efficacy studies were distributed into 8-10 mice/group with a mean tumor volume of 200 to 250 mm^3 at the initiation of dosing. A linear mixed effect (LME) modeling approach was used to analyze the repeated measurement of tumor volumes from the same animals over time (Pinheiro et al., “Linear and Nonlinear Mixed Effects Models” R package version 3; 1-131 (2017)). Cubic regression splines were used to fit a non-linear profile to the time courses of log^2 tumor volume at each dose level. These non-linear profiles were then related to dose within the mixed model. Tumor growth inhibition as a percentage of vehicle control (%TGI) was calculated as the percentage of the area under the fitted curve (AUC) for the respective dose group per day in relation to the vehicle, using the following formula: %TGI=100×(1−AUCdose/AUCvehicle).
Tumor sizes and mouse body weights were recorded twice weekly, and mice with tumor volume exceeding 2000 mm^3 or body weight loss of 20% of starting weight were promptly euthanized.

[4] = target: Class I PI3K alpha isoform (PI3Kα) versus Class I PI3K beta, delta, and gamma isoforms (Homo sapiens, UniProt P42336); settings: cited from earlier work
Chain of Class I PI3K alpha isoform (PI3Kα) versus Class I PI3K beta, delta, and gamma isoforms (P42336 whole entry, canonical isoform): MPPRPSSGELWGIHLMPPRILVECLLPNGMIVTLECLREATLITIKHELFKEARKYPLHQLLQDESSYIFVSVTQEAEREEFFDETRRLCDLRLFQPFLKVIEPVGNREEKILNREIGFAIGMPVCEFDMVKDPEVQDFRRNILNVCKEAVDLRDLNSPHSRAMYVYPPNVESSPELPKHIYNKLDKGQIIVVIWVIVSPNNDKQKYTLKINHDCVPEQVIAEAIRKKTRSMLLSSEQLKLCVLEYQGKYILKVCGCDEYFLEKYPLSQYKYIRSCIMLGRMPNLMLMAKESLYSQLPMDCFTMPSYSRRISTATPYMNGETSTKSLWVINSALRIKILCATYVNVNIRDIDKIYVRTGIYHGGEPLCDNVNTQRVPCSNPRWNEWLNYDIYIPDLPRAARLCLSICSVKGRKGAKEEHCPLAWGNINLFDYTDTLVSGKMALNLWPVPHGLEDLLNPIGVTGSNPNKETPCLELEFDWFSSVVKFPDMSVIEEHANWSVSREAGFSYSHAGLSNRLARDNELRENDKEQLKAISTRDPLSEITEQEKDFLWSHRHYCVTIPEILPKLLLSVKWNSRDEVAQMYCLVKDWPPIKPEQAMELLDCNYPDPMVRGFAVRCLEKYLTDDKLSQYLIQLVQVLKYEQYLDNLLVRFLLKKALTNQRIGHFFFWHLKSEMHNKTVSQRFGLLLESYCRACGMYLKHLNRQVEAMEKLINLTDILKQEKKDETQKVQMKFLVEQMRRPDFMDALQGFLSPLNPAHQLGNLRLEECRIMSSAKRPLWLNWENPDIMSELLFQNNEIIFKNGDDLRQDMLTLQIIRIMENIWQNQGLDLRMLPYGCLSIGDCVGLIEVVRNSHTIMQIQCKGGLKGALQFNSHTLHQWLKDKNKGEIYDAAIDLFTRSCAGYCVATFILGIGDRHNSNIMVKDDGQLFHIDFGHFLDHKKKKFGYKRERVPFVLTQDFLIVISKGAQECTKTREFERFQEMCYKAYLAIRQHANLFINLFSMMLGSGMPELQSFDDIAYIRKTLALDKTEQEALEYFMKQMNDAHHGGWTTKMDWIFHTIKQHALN
Chain of Class I PI3K alpha isoform (PI3Kα) versus Class I PI3K beta, delta, and gamma isoforms (P27986 whole entry partner, canonical isoform): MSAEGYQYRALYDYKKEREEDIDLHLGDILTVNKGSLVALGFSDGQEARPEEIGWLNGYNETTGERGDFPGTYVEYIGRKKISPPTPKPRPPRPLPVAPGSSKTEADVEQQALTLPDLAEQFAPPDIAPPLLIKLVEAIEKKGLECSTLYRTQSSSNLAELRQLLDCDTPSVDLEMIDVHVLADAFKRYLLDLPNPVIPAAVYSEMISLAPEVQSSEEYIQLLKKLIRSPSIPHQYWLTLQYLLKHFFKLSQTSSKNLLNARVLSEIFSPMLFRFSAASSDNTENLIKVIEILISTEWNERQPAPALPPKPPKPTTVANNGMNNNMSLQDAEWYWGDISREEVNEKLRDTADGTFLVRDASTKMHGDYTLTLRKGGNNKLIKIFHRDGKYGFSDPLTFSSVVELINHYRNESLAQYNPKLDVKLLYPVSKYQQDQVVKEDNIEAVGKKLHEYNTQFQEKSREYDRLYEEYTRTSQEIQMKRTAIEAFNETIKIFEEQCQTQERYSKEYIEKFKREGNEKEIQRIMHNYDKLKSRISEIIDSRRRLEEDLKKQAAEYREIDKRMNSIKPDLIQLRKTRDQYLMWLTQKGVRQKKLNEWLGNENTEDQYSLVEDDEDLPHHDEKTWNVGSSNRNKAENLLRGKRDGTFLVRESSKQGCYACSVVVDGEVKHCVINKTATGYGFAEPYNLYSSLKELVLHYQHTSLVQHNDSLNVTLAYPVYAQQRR

With `C[C@H](Nc1ccc2c(c1)OCCn1cc(N3C(=O)OC[C@H]3C(F)F)nc1-2)C(N)=O` [inavolisib, (S)-2-((2-((S)-4-(difluoromethyl)-2-oxooxazolidin-3-yl)-5,6-dihydrobenzo[f]imidazo[1,2-d][1,4]oxazepin-9-yl)amino)propanamide] the “difference between two inhibitors (mean IC50 values of inavolisib and alpelisib)” value [1] was 6 fold, the “difference between the mean IC50 values of inavolisib and alpelisib” value [2] was about 20 fold and the “Growth Effect Duration” value [3] was over 31.0. The “Growth Rate Contrast” value [3] was −0.069, the “Growth Contrast” value ([3]; 9 mice per group) was −0.086 and the “less potent biochemical inhibition for other Class I PI3K beta, delta, and gamma isoforms (selectivity for PI3Kα)” value [4] was over 300 fold.
